Data: publication PMC4546510 (ACS chemical biology, 2015)
Where two headings read alike, the source gives them in different places.

Tests used:
[1] = Cell viability assay; assay type: cell-based; settings: human
[2] = system: HCVsg 1b(con1)-Rluc replicon; experiment: microbe, parasite or virus in culture; assay type: cell-based, hepatitis C virus genotype 1b (con1); settings: read-out: EC50 (concentration needed to reduce cellular HCVsg 1b(con1)-Rluc replicon content by 50%)
[3] = system: HCVsg 1b(con1)-Rluc replicon; assay type: cell-based, hepatitis C virus genotype 1b; settings: combined with HPI; for Interaction with HPI (deviation from additive effects): Prichard & Shipman definitions; for Volume under the synergy plot (difference from Bliss additivity): MacSynergy II, 95% confidence
[4] = biological target: full-length NS3 (helicase) (Hepatitis C virus genotype 1a, UniProt P26664); assay type: biochemical
[5] = system: HCVsg 1b(con1) replicon harboring the R155K and V36A mutations; settings: 3 days
[6] = system: HCVsg 1b(con1)-Rluc replicon; assay type: cell-based, hepatitis C virus genotype 1b
[7] = system: Huh7.5 cell viability; experiment: Cell viability assay; assay type: cell-based
[8] = system: scNS4A-NS3 Q526A; experiment: NS3 depsipeptide cleavage; assay type: biochemical, hepatitis C virus genotype 1a
[9] = system: subgenomic dengue virus replicon (DENVsg 2); experiment: Dengue virus subgenomic replicon assay in BHK-21 cells; assay type: cell-based, dengue virus strain 2; settings: Renilla luciferase-tagged replicon
[10] = system: scNS4A-NS3 V524A; experiment: NS3 depsipeptide cleavage; assay type: biochemical, hepatitis C virus genotype 1a; settings: Val524 mutation
[11] = system: HCVsg 2a(JFH1) replicon; experiment: HCVsg 2a; assay type: cell-based, hepatitis C virus genotype 2a (JFH1); settings: Renilla luciferase reporter
[12] = system: scNS4A-NS3 H528A; experiment: NS3 depsipeptide cleavage; assay type: biochemical, hepatitis C virus genotype 1a
[13] = system: HCVsg 2a(JFH1) replicon; experiment: Colony formation assay, Huh7.5 cells with HCVsg 2a; assay type: cell-based, hepatitis C virus genotype 2a; settings: genotype 2a replicon, G418 selection
[14] = biological target: recombinant full-length NS3 not fused to NS4A (Hepatitis C virus genotype 1a, UniProt P26664); experiment: NS3 depsipeptide cleavage; assay type: biochemical; settings: in the presence and absence of NS4A
[15] = system: HCVsg 1b(con1) replicon harboring R155K; settings: 3 days
[16] = system: BHK DENV-Rluc cell viability
[17] = Hepatitis C virus, Huh7.5, 72 h

## CC(C)(C)NC(=O)N[C@H](C(=O)N1C[C@H]2[C@@H]([C@H]1C(=O)NC(CC1CCC1)C(=O)C(N)=O)C2(C)C)C(C)(C)C (some centres unmarked) [Boceprevir]
[1]; replicon-bearing Huh7.5 cells
  CC50: > 100 µM
[2]; [17]
  EC50: 0.64 ± 0.1 µM
[3]
  Interaction with HPI (deviation from additive effects): no significant deviations from additive effects
[4]
  Inhibition of NS3 in an MBHA: do not inhibit

## CC(C)(C)OC(=O)N[C@H]1CCCCC/C=C\[C@@H]2C[C@@]2(C(=O)NS(=O)(=O)C2CC2)NC(=O)[C@@H]2C[C@@H](OC(=O)N3Cc4cccc(F)c4C3)CN2C1=O [Danoprevir]
[1]
  CC50: 100 µM
[2]; [17]
  EC50: 0.002 ± 0.0005 µM
[3]
  Volume under the synergy plot (difference from Bliss additivity): 17 μM^2%
  Interaction with HPI (deviation from additive effects): Minor, insignificant synergy
[4]; full-length NS3
  Inhibition of NS3 in an MBHA: do not inhibit

## C=C[C@@H]1C[C@]1(NC(=O)[C@@H]1C[C@@H]2CN1C(=O)[C@H](C(C)(C)C)NC(=O)O[C@@H]1C[C@H]1CCCCCc1nc3ccc(OC)cc3nc1O2)C(=O)NS(=O)(=O)C1CC1 [Grazoprevir]
[1]; replicon-bearing Huh7.5 cells
  CC50: 54 ± 5 µM
[2]; [17]
  EC50: 0.00076 ± 0.00013 µM
[3]
  Volume under the synergy plot (difference from Bliss additivity): 101 μM^2%

## Cc1ccc2nc(-c3ccc4nc(-c5ccc(NC(=O)c6cc(C(F)(F)F)cc(C(F)(F)F)c6)cc5)sc4c3)sc2c1S(=O)(=O)O.N [HPI]
[5]
  Activity on telaprevir-resistant replicon versus HCVsg 1b(con1) replicon: equally active
[6]; incubated with HPI twice as long as 3 weeks (6 weeks)
  Change in sensitivity of the cell line to the compound after selection: ≤ 2 fold
[6]; telaprevir-selected cells, data not shown
  Sensitivity of cells that became resistant to telaprevir: retained sensitivity
[7]; concentrations up to 100 μM
  Effect on viability of cells containing HCVsg 1b(con1) or HCVsg 2a(JFH1): did not affect the viability
[7]; read-out: CC50 (concentration needed to reduce cell viability by 50%), Huh7.5 cells
  CC50: > 100 µM
[8]
  Effect of substitution on ability to inhibit the NS3 protease: neither the Q526A nor H528A substitutions influenced
[9]
  Antiviral activity on subgenomic dengue virus replicon: no antiviral activity
[10]
  Effect of mutation on ability to inhibit NS3-catalyzed peptide cleavage: do not affect
[11]
  Activity against the HCVsg 2a(JFH1) replicon: little activity
[12]
  Effect of substitution on ability to inhibit the NS3 protease: neither the Q526A nor H528A substitutions influenced
[13]
  Antiviral activity in colony-formation assay: some antiviral activity
[14]
  Amount needed to inhibit NS3-catalyzed peptide cleavage versus scNS4A-NS3: considerably more HPI was needed
[2]; Huh7.5 cells, 72 hours, relative to DMSO
  EC50: 15 ± 4 µM
[15]
  Activity on telaprevir-resistant replicon versus HCVsg 1b(con1) replicon: equally active
[16]
  Effect on cell viability, dengue replicon cells: no effect on cell viability
[4]; full-length NS3
  Inhibition of NS3 in an MBHA: inhibits full-length NS3 in an MBHA
[4]; read-out: IC50, molecular beacon-based helicase assay, NS3-catalyzed DNA unwinding, normalized initial velocities
  IC50: 6 ± 2 µM

## CCC[C@H](NC(=O)[C@@H]1[C@H]2CCC[C@H]2CN1C(=O)[C@@H](NC(=O)[C@@H](NC(=O)c1cnccn1)C1CCCCC1)C(C)(C)C)C(=O)C(=O)NC1CC1 [Telaprevir]
[6]; HPI-selected cells, data not shown
  Sensitivity of cells that were incubated with HPI: retained sensitivity
[6]; incubated with telaprevir for 3 weeks
  Resistance after incubation with the compound: became resistant
[1]; replicon-bearing Huh7.5 cells
  CC50: 45 ± 4 µM
[2]; [17]
  EC50: 0.81 ± 0.4 µM
[3]
  Interaction with HPI (deviation from additive effects): no significant deviations from additive effects
[4]
  Inhibition of NS3 in an MBHA: do not inhibit
